Results on nine compounds are retold here after patent US8178568B2, “Sulfone compounds which modulate the CB2 receptor” (Boehringer Ingelheim International GmbH, priority 2008, dated 2012).

This assay has as its target T1, human CB2R (Homo sapiens, UniProt P34972).
T1 construct: host or cells: CHO cells
Briefly: CB2R mediated modulation of cAMP synthesis. The assay is classed as cell-based. The protocol:
B. CB2R Mediated Modulation of cAMP Synthesis:
Compounds of the invention were evaluated for their CB2 agonist or inverse agonistic activity in accordance with the following experimental method.
CHO cells expressing human CB2R (Euroscreen) were plated at a density of 5000 cells per well in 384 well plates and incubated overnight at 37° C. After removing the media, the cells were treated with test compounds diluted in stimulation buffer containing 1 mM IBMX, 0.25% BSA and 10 uM Forskolin. The assay was incubated for 30 minutes at 37° C. Cells were lysed and the cAMP concentration was measured using DiscoverX-XS cAMP kit, following the manufacturer's protocol. In this setting, agonists will decrease forskolin induced production of cAMP while inverse agonists will further increase forskolin induced production of cAMP. EC50 of agonists were calculated as follows. The maximal amount of cAMP produced by forskolin compared to the level of cAMP inhibited by 1 uM CP55940 is defined as 100%. The EC50 value of each test compound was determined as the concentration at which 50% of the forskolin-stimulated cAMP synthesis was inhibited. Data was analyzed using a four-parameter logistic model. (Model 205 of XLfit 4.0).

Where [1] appears, read: Table III, formula I compounds, CHO cells expressing human CB2R, inhibition of forskolin-stimulated cAMP synthesis, read-out: CB2 EC50.

Structures are written as SMILES. Like-named read-outs stand apart in the source and are kept apart here.

T1 sequence (P34972 whole entry): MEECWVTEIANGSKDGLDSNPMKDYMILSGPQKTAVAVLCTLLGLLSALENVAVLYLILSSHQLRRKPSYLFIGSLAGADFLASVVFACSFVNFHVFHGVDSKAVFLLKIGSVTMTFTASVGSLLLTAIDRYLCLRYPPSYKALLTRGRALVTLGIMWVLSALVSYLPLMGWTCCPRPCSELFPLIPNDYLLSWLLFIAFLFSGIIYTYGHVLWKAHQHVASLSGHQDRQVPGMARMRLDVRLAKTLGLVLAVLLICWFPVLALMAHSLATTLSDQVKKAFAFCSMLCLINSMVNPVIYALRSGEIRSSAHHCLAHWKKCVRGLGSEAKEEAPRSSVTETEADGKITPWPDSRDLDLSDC

`CC(C)(C)c1cc(N2CCC(C)(S(=O)(=O)c3ccc(Cl)cc3)C2=O)no1` (stereo not drawn): a half-maximal response (EC50) required 14 nM.
On the same count and under the same terms, as for `CC(C)(C)c1cc(N2CCC(C)(S(=O)(=O)c3ccc(Cl)cc3)C2=O)on1` (stereo not drawn), the figure is 25 nM.
With `CC1(S(=O)(=O)c2ccc(Cl)cc2)CCN(c2nnc(-c3ccccc3)[nH]2)C1=O` (stereo not drawn), the concentration for a half-maximal effect (EC50) (commonly the midpoint of the concentration-response curve) under setting [1] came to 20 nM.
Consider `CC(C)(C)c1cc(N2CCC(C)(S(=O)(=O)C3CCOCC3)C2=O)on1` (stereo not drawn), for which, under setting [1], the EC50 is 220 nM.
`CC(C)(C)c1cc(N2CC[C@](C)(S(=O)(=O)c3ccc(Cl)cc3)C2=O)on1` yielded a half-maximal effective concentration (EC50) of 25 nM.
Still for that read-out and setting: as for `CC(C)(C)c1cc(N2CC[C@@](C)(S(=O)(=O)c3ccc(Cl)cc3)C2=O)on1`, the figure is 37 nM.
Still for that read-out and setting: in the case of `CC(C)(C)c1cc(NC(=O)C(C)(CCO)S(=O)(=O)C2CCOCC2)on1` (stereo not drawn) it was 21 nM; in that of `CC(C)(C)c1cc(NC(=O)C(C)(CCO)S(=O)(=O)c2ccc(Cl)cc2)on1` (stereo not drawn), 17 nM.
On to `O=C(Nc1nc(-c2ccccc2)ns1)C(CCO)S(=O)(=O)c1ccc(Cl)cc1` (stereo not drawn), for which the concentration giving a half-maximal response (EC50) (Table VI, formula IB compounds, CHO cells expressing human CB2R, inhibition of forskolin-stimulated cAMP synthesis, read-out: CB2 EC50) amounted to 544 nM.
